Holding throughout (format): functional, cell-based
Experiment [1] deals with HepG2. In words: Hypolipidemic activity in human HepG2 cells assessed as inhibition of oleic acid-induced lipid accumulation at 10 uM.
Experiment [2] relates to HepG2. In words: Downregulation of FASN mRNA expression in human HepG2 cells at 10 uM by qRT-PCR analysis. Background: Quantitative PCR measures a nucleic acid by following its amplification.
The test system of experiment [3] is HepG2. In words: Downregulation of SREBF1 mRNA expression in human HepG2 cells at 10 uM by qRT-PCR analysis.
Experiment [4] deals with HepG2. Nature of the experiment: Downregulation of HMGCR mRNA expression in human HepG2 cells at 10 uM by qRT-PCR analysis.
Experiment [5] concerns HepG2. In words: Hypolipidemic activity against oleic acid-induced lipid accumulation in human HepG2 cell model assessed as decrease in triglycerides (16:0/14:0/20:5) level at 10 uM by UPLC-QTOF-MS analysis.
In experiment [6] the test system is HepG2. In words: Hypolipidemic activity against oleic acid-induced lipid accumulation in human HepG2 cell model assessed as decrease in diglycerides (20:5/16:0/0:0) level at 10 uM by UPLC-QTOF-MS analysis.
Experiment [7] has as its system HepG2. Nature of the experiment: Hypolipidemic activity against oleic acid-induced lipid accumulation in human HepG2 cell model assessed as decrease in phosphatidylcholine (O-16:0/20:5) level at 10 uM by UPLC-QTOF-MS analysis.
Experiment [8] has as its system HepG2. Nature of the experiment: Hypolipidemic activity against oleic acid-induced lipid accumulation in human HepG2 cell model assessed as decrease in 1acyl-sn-glycero-3phosphocholines (18:2/0:0) level at 10 uM by UPLC-QTOF-MS analysis.
The test system of experiment [9] is HepG2. Nature of the experiment: Hypolipidemic activity against oleic acid-induced lipid accumulation in human HepG2 cell model assessed as decrease in triglycerides (16:0/16:0/18:3) level at 10 uM by UPLC-QTOF-MS analysis.
For experiment [10], the system named is HepG2. Nature of the experiment: Hypolipidemic activity against oleic acid-induced lipid accumulation in human HepG2 cell model assessed as decrease in triglycerides (18:1/16:0/20:5) level at 10 uM by UPLC-QTOF-MS analysis.
The test system of experiment [11] is HepG2. In words: Hypolipidemic activity against oleic acid-induced lipid accumulation in human HepG2 cell model assessed as decrease in triglycerides (18:1/18:3/18:1) level at 10 uM by UPLC-QTOF-MS analysis.
Experiment [12] has as its system HepG2. In words: Hypolipidemic activity against oleic acid-induced lipid accumulation in human HepG2 cell model assessed as decrease in diglycerides (18:2/20:5/0:0) level at 10 uM by UPLC-QTOF-MS analysis.
The subject of experiment [13] is HepG2. In words: Hypolipidemic activity against oleic acid-induced lipid accumulation in human HepG2 cell model assessed as decrease in diglycerides (20:4/18:2/0:0) level at 10 uM by UPLC-QTOF-MS analysis.
The subject of experiment [14] is HepG2. Nature of the experiment: Hypolipidemic activity against oleic acid-induced lipid accumulation in human HepG2 cell model assessed as decrease in diglycerides (20:1/0:0/20:4) level at 10 uM by UPLC-QTOF-MS analysis.
In experiment [15] the test system is HepG2. In words: Hypolipidemic activity against oleic acid-induced lipid accumulation in human HepG2 cell model assessed as decrease in phosphatidylcholine (18:2/18:2) level at 10 uM by UPLC-QTOF-MS analysis.

Structures are written as SMILES. Calls of active or inactive are those of the source. The calls are words filed in the database; no cut-off is given here.

As to `CC(C)=C[C@H]1C/C(=C\CO[C@H]2O[C@@H](COC(=O)/C=C/c3ccc(O)cc3)[C@H](O)[C@@H](O)[C@@H]2O)C(=O)O1`, the outcome with HepG2 [1] was inactive.
Same read-out and setting: in the case of `COC(=O)/C=C/c1ccc(O)c(OC)c1` it was “inactive”.
In the case of `COc1ccc(/C=C/C(=O)OC[C@@H]2O[C@H](OC/C=C3\C[C@@H](C=C(C)C)OC3=O)[C@@H](O)[C@H](O)[C@H]2O)cc1O`, the result in the experiment with HepG2 [1], with HepG2 [5], in the experiment on HepG2 [6], in the experiment on HepG2 [7], with HepG2 [8] and in the experiment with HepG2 [9] was Active. The result in the experiment with HepG2 [10], in the experiment with HepG2 [11], in the experiment with HepG2 [12], in the experiment on HepG2 [13], in the experiment on HepG2 [14] and with HepG2 [15] was Active. The inhibition entry in the experiment with HepG2 [2] was “Active”. Besides, the inhibition result in the experiment with HepG2 [3] and in the experiment with HepG2 [4] was “inactive” each time.
As for `CC(C)=CC(=O)/C=C(\C)CCO[C@H]1O[C@@H](COC(=O)/C=C/c2ccc(O)c(O)c2)[C@H](O)[C@@H](O)[C@@H]1O`, the outcome in the experiment with HepG2 [1] was Active.
Still for that read-out and setting: in the case of `CC(C)=C[C@@H]1C/C(=C\CO[C@H]2O[C@@H](COC(=O)/C=C/c3ccc(O)cc3)[C@H](O)[C@@H](O)[C@@H]2O)C(=O)O1` it was “Active”; in that of `CC(C)=CC(=O)/C=C(/C)CCO[C@H]1O[C@@H](COC(=O)/C=C/c2ccc(O)c(O)c2)[C@H](O)[C@@H](O)[C@@H]1O`, “Active”; in that of `COc1ccc(/C=C/C(=O)OC[C@@H]2O[C@H](OC/C=C3\C[C@H](C=C(C)C)OC3=O)[C@@H](O)[C@H](O)[C@H]2O)cc1O`, “Active”.
